Each block holds one compound with its values, some of them ahead of it.
Key:
Human recombinant PKCβ1 = biological target: T1, Human recombinant PKCβ1 (Homo sapiens, UniProt P05771); test: Protein Kinase Cβ1 assay; type: biochemical; conditions: for IC50: human recombinant PKCβ1, single compounds
T1 construct: purchased Oxford Biomedical Research
Protocol: (§1) The compounds of the invention are tested for their activity on different PKC isoforms according to the following method. Assay is performed in a white with clear bottom 384-well microtiterplate with non-binding surface. The reaction mixture (25 μl) contains 1.5 μM of a tridecapeptide acceptor substrate that mimics the pseudo substrate sequence of PKC a with the Ala→Ser replacement, 10 μM ^33P-ATP, 10 mM Mg(NO3)2, 0.2 mM CaCl2, PKC at a protein concentration varying from 25 to 400 ng/ml (depending on the isotype used), lipid vesicles (containing 30 mol % phosphatidylserine, 5 mol % DAG and 65 mol % phosphatidylcholine) at a final lipid concentration of 0.5 mM, in 20 mM Tris-HCl buffer pH 7.4+0.1% BSA. Incubation is performed for 60 min at room temperature. Reaction is stopped by adding […] of stop mix (100 mM EDTA, 200 μM ATP, 0.1% Triton X-100, 0.375 mg/well streptavidin-coated SPA beads in phosphate buffered saline w/o Ca, Mg. After 10 min incubation at room temperature, the suspension is spun down for 10 min at 300 g. Incorporated radioactivity is measured in a Trilux counter for 1 min. IC50 measurement is performed on a routine basis by incubating a serial dilution of inhibitor at concentrations ranging between 1-1000 μM. IC50 values are calculated from the graph by curve fitting with XL Fit® software.
Human recombinant PKCβ1 was obtained from Oxford Biomedical Research and is used under the assay conditions as described under Section A.1 above.

Human recombinant PKCε = biological target: T2, Human recombinant PKCε (Homo sapiens, UniProt Q02156); test: Protein Kinase Cε assay; type: biochemical
T2 construct: purchased Oxford Biomedical Research
T2 sequence (Q02156 1-737): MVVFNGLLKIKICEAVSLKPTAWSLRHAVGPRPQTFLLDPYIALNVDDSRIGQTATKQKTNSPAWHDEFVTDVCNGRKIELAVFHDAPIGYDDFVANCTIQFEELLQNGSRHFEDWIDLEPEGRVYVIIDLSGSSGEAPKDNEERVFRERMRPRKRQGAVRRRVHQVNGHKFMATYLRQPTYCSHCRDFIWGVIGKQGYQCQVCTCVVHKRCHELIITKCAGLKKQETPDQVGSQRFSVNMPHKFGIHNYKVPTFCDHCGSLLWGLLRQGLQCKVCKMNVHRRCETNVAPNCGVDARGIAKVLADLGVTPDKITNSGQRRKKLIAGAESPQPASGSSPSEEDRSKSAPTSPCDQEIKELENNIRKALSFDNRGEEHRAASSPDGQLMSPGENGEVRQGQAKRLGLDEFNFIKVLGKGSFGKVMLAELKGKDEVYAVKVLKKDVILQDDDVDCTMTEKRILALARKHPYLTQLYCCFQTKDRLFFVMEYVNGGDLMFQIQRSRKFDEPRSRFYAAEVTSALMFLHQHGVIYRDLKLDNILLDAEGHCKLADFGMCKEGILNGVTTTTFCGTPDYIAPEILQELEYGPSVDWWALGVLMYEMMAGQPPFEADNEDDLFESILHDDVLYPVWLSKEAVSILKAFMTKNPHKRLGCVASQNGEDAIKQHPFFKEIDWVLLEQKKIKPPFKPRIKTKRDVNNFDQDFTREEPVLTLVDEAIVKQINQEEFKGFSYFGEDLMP
Protocol: as §1, with “software. […]” for “software.”

[1] = test system: spleen cells from CBA and BALB/c mice; test: Allogeneic Mixed Lymphocyte Reaction (MLR), compared with BM assay; type: cell-based
Protocol: The two-way MLR is performed according to standard procedures (J. Immunol. Methods, 1973, 2, 279 and Meo T. et al., Immunological Methods, New York, Academic Press, 1979, 227-39). Briefly, spleen cells from CBA and BALB/c mice (1.6×10^5 cells from each strain per well in flat bottom tissue culture microtiter plates, 3.2×10^5 in total) are incubated in RPMI medium containing 10% FCS, 100 U/ml penicillin, 100 μg/ml streptomycin (Gibco BRL, Basel, Switzerland), 50 μM 2-mercaptoethanol (Fluka, Buchs, Switzerland) and serially diluted compounds. Seven three-fold dilution steps in duplicates per test compound are performed. After four days of incubation 1 μCi ^3H-thymidine is added. Cells are harvested after an additional five-hour incubation period, and incorporated ^3H-thymidine is determined according to standard procedures. […]
The ratios of the IC50 value for PKC β to the IC50 value for PKCα, of the IC50 value for PKC δ to the IC50 value for PKCα, of the IC50 value for PKC δ to the IC50 value for PKCα, of the IC50 value for PKC ε to the IC50 value for PKCα, of the IC50 value for PKC η to the IC50 value for PKCα, of the IC50 value for PKC θ to the IC50 value for PKCα, of the IC50 value as determined by the MLR assay and to the IC50 value as determined by the BM assay, obtained for some compounds of the invention are indicated in table 11.

Human recombinant PKCδ = biological target: T3, Human recombinant PKCδ (Homo sapiens, UniProt Q05655); test: Protein Kinase Cδ assay; type: biochemical
T3 construct: purchased Oxford Biomedical Research
Protocol: as §1, with “software. […]” for “software.”

Human recombinant PKCη = biological target: T4, Human recombinant PKCη (Homo sapiens, UniProt P24723); test: Protein Kinase Cη assay; type: biochemical
T4 construct: purchased PanVera
Protocol: as §1, with “software. […]” for “software.”

Human recombinant PKCθ = Human recombinant PKCθ (Homo sapiens, UniProt Q04759); test: Protein Kinase C θ assay; type: biochemical
Protocol: as §1, with “software. […]” for “software.”

Human recombinant PKCα = biological target: T5, Human recombinant PKCα (Homo sapiens, UniProt P17252); test: Protein Kinase Cα assay; type: biochemical; conditions: single compounds
T5 construct: purchased Oxford Biomedical Research
Protocol: as §1
Human recombinant PKCα was obtained from Oxford Biomedical Research and is used under the assay conditions as described under Section A.1 above.

T1 sequence (P05771 whole entry): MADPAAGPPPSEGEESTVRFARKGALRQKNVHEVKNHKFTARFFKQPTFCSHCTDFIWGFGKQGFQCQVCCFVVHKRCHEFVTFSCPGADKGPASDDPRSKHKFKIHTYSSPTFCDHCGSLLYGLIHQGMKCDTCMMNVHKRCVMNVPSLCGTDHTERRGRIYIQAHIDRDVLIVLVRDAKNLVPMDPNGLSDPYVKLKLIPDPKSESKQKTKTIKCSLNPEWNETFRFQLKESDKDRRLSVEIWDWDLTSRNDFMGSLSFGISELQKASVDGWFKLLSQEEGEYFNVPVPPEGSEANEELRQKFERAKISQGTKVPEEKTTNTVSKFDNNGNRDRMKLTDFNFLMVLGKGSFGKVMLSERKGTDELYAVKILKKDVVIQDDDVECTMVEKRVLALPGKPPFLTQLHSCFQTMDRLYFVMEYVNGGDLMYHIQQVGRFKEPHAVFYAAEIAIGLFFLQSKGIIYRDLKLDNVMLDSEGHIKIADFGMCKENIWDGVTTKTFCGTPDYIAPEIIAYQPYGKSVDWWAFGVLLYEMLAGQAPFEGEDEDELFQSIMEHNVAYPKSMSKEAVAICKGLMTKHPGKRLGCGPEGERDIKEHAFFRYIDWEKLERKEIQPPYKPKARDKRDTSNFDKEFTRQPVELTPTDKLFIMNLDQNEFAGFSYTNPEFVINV
T4 sequence (P24723 whole entry): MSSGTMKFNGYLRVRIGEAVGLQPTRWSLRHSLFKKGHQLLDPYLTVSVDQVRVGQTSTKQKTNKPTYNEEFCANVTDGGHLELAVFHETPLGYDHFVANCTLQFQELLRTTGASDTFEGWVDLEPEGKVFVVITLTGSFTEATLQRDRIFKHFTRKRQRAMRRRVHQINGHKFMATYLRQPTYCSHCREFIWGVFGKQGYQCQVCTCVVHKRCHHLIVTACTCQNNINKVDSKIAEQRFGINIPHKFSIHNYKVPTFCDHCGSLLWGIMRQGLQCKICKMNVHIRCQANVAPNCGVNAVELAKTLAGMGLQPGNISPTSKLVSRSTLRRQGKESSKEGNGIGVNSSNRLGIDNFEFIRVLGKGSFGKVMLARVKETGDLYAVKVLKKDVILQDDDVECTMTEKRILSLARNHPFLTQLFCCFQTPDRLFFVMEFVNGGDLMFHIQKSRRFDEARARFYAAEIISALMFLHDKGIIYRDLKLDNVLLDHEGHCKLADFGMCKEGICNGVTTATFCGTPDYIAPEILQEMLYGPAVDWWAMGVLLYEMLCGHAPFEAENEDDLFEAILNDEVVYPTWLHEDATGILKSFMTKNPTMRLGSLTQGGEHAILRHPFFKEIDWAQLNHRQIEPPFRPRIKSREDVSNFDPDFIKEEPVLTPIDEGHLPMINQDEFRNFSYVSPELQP
Chain of Human recombinant PKCθ (Q04759 whole entry): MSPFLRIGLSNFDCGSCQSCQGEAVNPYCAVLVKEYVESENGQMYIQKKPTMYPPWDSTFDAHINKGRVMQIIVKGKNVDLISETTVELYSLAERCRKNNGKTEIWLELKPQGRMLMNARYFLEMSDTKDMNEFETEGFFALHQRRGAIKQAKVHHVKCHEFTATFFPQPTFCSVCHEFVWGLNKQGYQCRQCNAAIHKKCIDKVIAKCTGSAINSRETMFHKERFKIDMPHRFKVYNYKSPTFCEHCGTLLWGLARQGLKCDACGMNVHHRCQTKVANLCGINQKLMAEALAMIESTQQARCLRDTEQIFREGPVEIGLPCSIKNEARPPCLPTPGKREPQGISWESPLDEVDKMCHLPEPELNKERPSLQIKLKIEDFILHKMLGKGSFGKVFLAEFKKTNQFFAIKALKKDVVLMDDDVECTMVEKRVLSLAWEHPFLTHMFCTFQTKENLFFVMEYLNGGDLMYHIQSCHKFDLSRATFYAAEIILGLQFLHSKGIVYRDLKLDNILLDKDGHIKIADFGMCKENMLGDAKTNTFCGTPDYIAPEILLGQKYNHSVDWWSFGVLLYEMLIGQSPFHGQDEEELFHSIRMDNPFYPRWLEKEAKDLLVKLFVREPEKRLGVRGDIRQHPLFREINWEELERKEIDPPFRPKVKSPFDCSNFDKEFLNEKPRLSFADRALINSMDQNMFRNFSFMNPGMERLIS
T3 sequence (Q05655 whole entry): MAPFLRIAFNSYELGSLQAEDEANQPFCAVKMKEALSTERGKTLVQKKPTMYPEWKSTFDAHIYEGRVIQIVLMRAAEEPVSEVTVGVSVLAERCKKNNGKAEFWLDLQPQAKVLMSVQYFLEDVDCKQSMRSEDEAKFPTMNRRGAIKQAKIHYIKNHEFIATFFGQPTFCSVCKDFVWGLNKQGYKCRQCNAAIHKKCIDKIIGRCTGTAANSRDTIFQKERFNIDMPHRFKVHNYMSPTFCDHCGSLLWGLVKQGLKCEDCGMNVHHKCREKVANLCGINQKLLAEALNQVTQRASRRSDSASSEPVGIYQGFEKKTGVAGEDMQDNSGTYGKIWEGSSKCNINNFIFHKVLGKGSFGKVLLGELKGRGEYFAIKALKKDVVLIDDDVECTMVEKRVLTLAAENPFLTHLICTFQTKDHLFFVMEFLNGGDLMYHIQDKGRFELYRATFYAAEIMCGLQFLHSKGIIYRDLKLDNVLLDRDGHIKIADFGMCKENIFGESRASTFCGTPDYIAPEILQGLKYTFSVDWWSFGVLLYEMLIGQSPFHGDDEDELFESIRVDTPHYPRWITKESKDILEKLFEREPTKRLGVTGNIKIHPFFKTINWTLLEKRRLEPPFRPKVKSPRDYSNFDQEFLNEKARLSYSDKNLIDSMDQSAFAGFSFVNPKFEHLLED

SMILES: Cn1cc(C2=C(c3c(Cl)ccc4ccc(CNCCF)cc34)C(=O)NC2=O)c2ccccc21 [Example 1, 3-{2-Chloro-7-[(2-fluoro-ethylamino)-methyl]-naphthalen-1-yl}-4-(1-methyl-1H-indol-3-yl)-pyrrole-2,5-dione]
- β/α (ratio of the IC50 value for PKC β to the IC50 value for PKCα) (Human recombinant PKCβ1): 0.5
- ε/α (ratio of the IC50 value for PKC ε to the IC50 value for PKCα) (Human recombinant PKCε): 19.4
- BM/MLR (ratio of IC50 by the BM assay and IC50 by the MLR assay) [1]: 41.3
- δ/α (ratio of the IC50 value for PKC δ to the IC50 value for PKCα) (Human recombinant PKCδ): 7.1
- η/α (ratio of the IC50 value for PKC η to the IC50 value for PKCα) (Human recombinant PKCη): 39.3
- θ/α (ratio of the IC50 value for PKC θ to the IC50 value for PKCα) (Human recombinant PKCθ): 2.9

SMILES: CN(C)Cc1ccc2ccc(Cl)c(C3=C(c4cn5c6c(cccc46)OCCC5)C(=O)NC3=O)c2c1 [Example 20]
- β/α (ratio of the IC50 value for PKC β to the IC50 value for PKCα) (Human recombinant PKCβ1): 0.4
- IC50 (Human recombinant PKCβ1): 12.4 nM
- ε/α (ratio of the IC50 value for PKC ε to the IC50 value for PKCα) (Human recombinant PKCε): >35.7
- IC50 (Human recombinant PKCα): 28 nM
- BM/MLR (ratio of IC50 by the BM assay and IC50 by the MLR assay) [1]: >10
- δ/α (ratio of the IC50 value for PKC δ to the IC50 value for PKCα) (Human recombinant PKCδ): 30.6
- η/α (ratio of the IC50 value for PKC η to the IC50 value for PKCα) (Human recombinant PKCη): >35.7
- θ/α (ratio of the IC50 value for PKC θ to the IC50 value for PKCα) (Human recombinant PKCθ): 14.2

SMILES: COc1cccc2c(C3=C(c4c(Cl)ccc5ccc(CN(C)C)cc45)C(=O)NC3=O)c[nH]c12 [Example 37]
- IC50 (Human recombinant PKCα): 3 nM

SMILES: COCCOc1ccc2c(C3=C(c4c(Cl)ccc5ccc(CN(C)C)cc45)C(=O)NC3=O)c[nH]c2c1 [Example 38]
- IC50 (Human recombinant PKCα): 9 nM

The next lines start with the values.

- IC50 (Human recombinant PKCβ1): 51 nM
SMILES: Cc1cccc2c(C3=C(c4c(Cl)ccc5ncc(CN(C)C)cc45)C(=O)NC3=O)c[nH]c12 [Example 136]

- IC50 (Human recombinant PKCβ1): 25 nM
SMILES: CN(C)Cc1cc2c(C3=C(c4c[nH]c5ccccc45)C(=O)NC3=O)c(Cl)ccc2cn1 [Example 146]

- IC50 (Human recombinant PKCβ1): 41 nM
SMILES: CN(C)Cc1ccc2ccc(Cl)c(C3=C(c4cn(C)c5ccccc45)C(=O)NC3=O)c2n1 [Example 163]
